Source: patent US7943296B2, “Methods of screening using a natriuretic peptide receptor” (Oregon Health & Science University, priority 2005, dated 2011)

Key:
[1] = tested on: cardiac fibroblasts (CFs); assay: bFGF-induced α-SMA protein expression in CFs (Western blot); type: cell-based, rat; conditions: fragment expressed; 10 ng/ml FGF 48 hours; 100 nM ANP
Description: NP's ability to inhibit growth factor-induced CF differentiation into myofibroblasts was determined as follows. CFs were transiently transfected with insertless pcDNA3 vector or pcDNA3 encoding sNRF^(806-900) (see Example 7). The transfected CFs were then treated for 48 hours with 10 ng/ml basic fibroblast growth factor (FGF; Sigma-Aldrich #F0291) in the presence or absence of 100 nM ANP. Alpha-smooth muscle actin (α-SMA) protein expression, the principal marker of CF differentiation, was assessed by Western blotting and immunofluorescence microscopy. Vimentin staining was used as a loading control because it is expressed equally in fibroblasts and transdifferentiated myofibroblasts.

NPRA = assay: [35S]ATPγS incorporation into NPRA (receptor phosphorylation) in CFs; type: cell-based, rat; conditions: ANP 5 minutes, KT5823 1 μM or expressed fragment
Description: To identify receptor phosphorylation by PKG, ^[35S]ATPγS was employed as a substrate. [^35S] incorporation into NPRA was analyzed according to the method previously described (Joubert et al., Biochem. 40:11096-105, 2001). Briefly, the treated CFs were scraped into 100 μl ice-cold incubation buffer (25 mM HEPES, pH 7.4, 50 mM NaCl, 5 mM MgCl2, 0.2 μM okadaic acid, 1 mM Na3VO4, 10 mM NaH2PO4, 10 mM NaF, and protease inhibitors (complete mini-tablet, Roche) and lysed by repeated passage through a 22-gauge needle. Lysates were added to incubation buffer containing 1 μCi [^35S]ATPγS (specific activity >1000 Ci/mmol), final volume of 200 μl, incubated at 37° C. for 30 minutes. Proteins were analyzed by SDS-PAGE (7.5%) and subsequent autoradiography.

PKG = target: T1, PKG (Rattus norvegicus, UniProt A9LNM8); assay: Co-immunoprecipitation of PKG with FLAG-tagged NPRA fragments in primary CFs; type: binding; conditions: 5'-FLAG-tagged fragment in transfected CFs, anti-FLAG M2 affinity gel
T1 construct: endogenous in cells; host or cells: primary neonatal rat cardiac fibroblasts transfected with 5'-FLAG sNRF fragments
T1 sequence (A9LNM8 1-671): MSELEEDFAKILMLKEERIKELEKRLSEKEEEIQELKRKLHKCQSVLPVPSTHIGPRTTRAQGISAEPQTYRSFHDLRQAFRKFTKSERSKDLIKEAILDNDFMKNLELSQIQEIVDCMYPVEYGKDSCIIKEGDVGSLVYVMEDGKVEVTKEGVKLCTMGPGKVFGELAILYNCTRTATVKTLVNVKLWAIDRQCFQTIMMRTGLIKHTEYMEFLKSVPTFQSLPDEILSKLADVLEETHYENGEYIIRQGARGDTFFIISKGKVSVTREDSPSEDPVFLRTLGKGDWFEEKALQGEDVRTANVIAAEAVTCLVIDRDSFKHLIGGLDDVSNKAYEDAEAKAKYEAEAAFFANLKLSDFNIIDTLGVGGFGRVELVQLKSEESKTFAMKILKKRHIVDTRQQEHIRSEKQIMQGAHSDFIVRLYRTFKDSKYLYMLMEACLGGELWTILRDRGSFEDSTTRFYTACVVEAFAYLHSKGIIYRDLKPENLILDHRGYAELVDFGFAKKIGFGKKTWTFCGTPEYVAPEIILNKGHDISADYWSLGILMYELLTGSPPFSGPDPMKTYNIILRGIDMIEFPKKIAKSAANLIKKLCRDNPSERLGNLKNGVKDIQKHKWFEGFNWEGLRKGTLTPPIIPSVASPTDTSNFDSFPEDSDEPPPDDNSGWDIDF
Description: Neonatal rat ventricular fibroblasts (CFs) were cultured from 1 to 2-day-old Harlan Sprague-Dawley rats as described previously (Simpson, Circulation Res. 56:884-94, 1985). Briefly, ventricles were dissected free from atria and quartered. Following dissociation in ADS buffer containing 1.5 mg/ml trypsin (Gibco #27250-018) and 1% DNase solution (2 mg/ml DNase type II, 150 mM NaCl) with serum neutralization the collected cells were pre-incubated in media at 37° C. for 90 minutes to allow CF attachment to the bottom of culture dishes. CFs were incubated in plating media for 48 hours, divided into 6-well culture plates or dual-well chamberslides, and grown to 50% confluency in DMEM with 10% FBS prior to use.
CFs were transiently transfected with nucleic acid molecules encoding sNRF^(806-1061), sNRF^(806-900), or sNRF^(806-860) using routine methods. Briefly, PCR-generated, 5′-FLAG epitope-tagged sNRFs were subcloned into the BamHI and EcoRI sites of pCDNA3 (Invitrogen) and sequenced to verify construction accuracy. […]
The ability of the NPRA fragments to immunoprecipitate PKG was determined in the primary CF cells transfected with the 5′-FLAG epitope-tagged NPRA fragments as follows. […] Bound antibody was detected with chemiluminescent substrate (Western Lightning ECL, PerkinElmer Life Sciences).

co-immunoprecipitation of PKG (PKG): co-immunoprecipitated PKG
Substance: sNRF^(806-900): intracellular NPRA fragment, residues 806-900, excludes the cyclase-containing domain; shortest fragment observed to associate with PKG
ANP's inhibitory effect on growth factor-induced α-SMA protein expression [1]: reversed ANP's inhibitory effect
ANP-induced NPRA phosphorylation (NPRA): reduced ANP-induced NPRA phosphorylation to control levels
